# Assay results published in BindingDB's records for doi:10.1016/s0960-894x(99)00666-6 (Merck Research Laboratories, 2000).
# Target: Integrase (Human immunodeficiency virus 1, UniProt Q7ZJM1)
# Assay: ChEBML_90573
# Description: Inhibitory activity against HIV-1 integrase
# Integrase, sequence (Q7ZJM1 whole entry): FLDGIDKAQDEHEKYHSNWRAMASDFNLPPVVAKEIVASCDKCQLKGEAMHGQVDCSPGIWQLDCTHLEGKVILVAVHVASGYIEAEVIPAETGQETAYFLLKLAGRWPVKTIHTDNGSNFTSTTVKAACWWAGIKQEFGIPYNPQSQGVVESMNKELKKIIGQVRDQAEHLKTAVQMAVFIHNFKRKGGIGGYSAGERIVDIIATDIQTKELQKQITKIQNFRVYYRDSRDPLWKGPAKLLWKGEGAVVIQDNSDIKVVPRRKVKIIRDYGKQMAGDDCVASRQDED
compound,measurement,value
"CCCCC(C)/C=C(\C)C(=O)O[C@@H]1CC[C@H](C(=O)O)[C@@]2(C)CC(=C(C)C=O)C(=O)C=C12 (stereo partly drawn) [(1S,4R,7S,8aR)-4-((E)-2,4-Dimethyl-oct-2-enoyloxy)-7-(1-formyl-vinyl)-8a-methyl-6-oxo-1,2,3,4,6,7,8,8a-octahydro-naphthalene-1-carboxylic acid]",IC50,3 µM
